Bounds are passed on as bounds.

What is called EC50 is the midpoint of the concentration-response curve. Lower therefore signals an effect from little substance. The inhibition is how much of the control response was suppressed.

Common to all, as to assay type: cell-based
Assay [1] has as its system IL-6 (THP-1 human monocyte cell line). The assay is described as follows: IL-6 inhibition in LPS-stimulated THP-1 cells (HTRF). As to conditions: LPS 500 ng/mL; for EC50: 22 hours, IL6 HTRF; for inhibition at 10 µM: given for EC50 >10 μM, read-out: percent inhibition at 10 μM. In outline: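 THP-1 cells, serum-reduced to 1% FBS for 24 h, preincubated 2 h at 37° C with compound (10-point, 1:3 series, 0.1% DMSO), then stimulated with 500 ng/mL LPS for 22 h. IL-6 quantified by HTRF 665/620 nm ratio, normalized to DMSO; EC50 by four-parameter fit, else percent inhibition at 10 μM.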
For orientation: Time-resolved FRET reads energy transfer from a long-lived donor to a nearby acceptor.

The next assay relates to SW480 colon cancer cells. The assay is described as follows: Cell viability assay (CellTiter-Blue). As to conditions: Homo sapiens, 96 h, four days; for inhibition at 10 µM: given for EC50 >10 μM, read-out: percent inhibition at 10 μM. In outline: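 Resazurin reduction (Ex 560/Em 590 nm, ~3 h reagent incubation) served as the viability read-out after SW480 cells were treated for four days at 37 °C. Doses ran from 10 μM down to 0.0045 μM in eight 1:3 steps. Curves fitted non-linearly for EC50, else % inhibition at 10 μM reported.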
In general terms: Resazurin is reduced to fluorescent resorufin, in cell work by metabolically active cells.

The subject of assay [2] is primary human fibroblasts derived from IPF patients (LL29 cells). The assay is described as follows: Inhibition of fibrotic process, αSMA staining in TGF-β1 treated LL29 fibroblasts. As to conditions: Fibroblast, 96 h, TGF-β1 20 ng/mL, 4 days; for EC50: % αSMA positive cells; for inhibition at 10 µM: given for EC50 >10 μM, read-out: percent inhibition at 10 μM. The procedure, abridged: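 IPF-patient LL29 lung fibroblasts in 1% FBS medium received compound (11-point, 1:2 dilution, 0.1% DMSO) plus TGF-β1 20 ng/mL, 4 days at 37 °C. Percent αSMA-positive cells among SYTOX-negative cells quantified by immunofluorescence imaging, normalized to TGF-β1/DMSO wells. EC50 by non-linear regression on triplicates; above 10 μM, % inhibition at 10 μM given.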

For `CN(C)Cc1cncc(-c2cnc3[nH]nc(-c4cc5c(N6CCCCC6)ccnc5[nH]4)c3c2)c1` [Compound 181, N,N-Dimethyl-1-(5-(3-(4-(piperidin-1-yl)-1H-pyrrolo[2,3-b]pyridin-2-yl)-1H-pyrazolo[3,4-b]pyridin-5-yl)pyridin-3-yl)methanamine], the values for the EC50 (in assay [1]; in the assay with SW480 colon cancer cells; in assay [2]) were 0.007 µM, greater than 10 µM and 0.007 µM, respectively. Moreover, the inhibition at 10 µM with SW480 colon cancer cells is 40.9%.

For `CN(C)CCOc1cncc(-c2cnc3[nH]nc(-c4cc5c(-c6cccnc6)ccnc5[nH]4)c3c2)c1` [Compound 563, N,N-dimethyl-2-((5-(3-(4-(pyridin-3-yl)-1H-pyrrolo[2,3-b]pyridin-2-yl)-1H-pyrazolo[3,4-b]pyridin-5-yl)pyridin-3-yl)oxy)ethan-1-amine], the EC50 in assay [1] was greater than 10 µM; in the assay with SW480 colon cancer cells, greater than 10 µM; in assay [2] it was 2.44 µM. In addition, the figures for the inhibition at 10 µM (in assay [1]; in the assay with SW480 colon cancer cells) were 18.7% and 5.3%, respectively.

Turning to `CC(C)(C)CC(=O)Nc1cncc(-c2cnc3[nH]nc(-c4cc5c(-c6ccccc6F)ccnc5[nH]4)c3c2)c1` [Compound 72, N-(5-(3-(4-(2-Fluorophenyl)-1H-pyrrolo[2,3-b]pyridin-2-yl)-1H-pyrazolo [3,4-b]pyridin-5-yl)pyridin-3-yl)-3,3-dimethylbutanamide], the EC50 in assay [1] was greater than 10 µM; in the assay with SW480 colon cancer cells, greater than 10 µM; in assay [2], 0.759 µM. Besides, the inhibition at 10 µM in assay [1] came out at 38.1%; with SW480 colon cancer cells, 14.7%.

Take `O=C(Nc1cncc(-c2cnc3[nH]nc(-c4cc5c(-c6cccc(F)c6)ccnc5[nH]4)c3c2)c1)c1ccccc1` [Compound 11, N-(5-(3-(4-(3-Fluorophenyl)-1H-pyrrolo[2,3-b]pyridin-2-yl)-1H-pyrazolo [3,4-b]pyridin-5-yl)pyridin-3-yl)benzamide]: the values for the EC50 (in assay [1]; with SW480 colon cancer cells; in assay [2]) were greater than 10 µM, 0.643 µM and 0.32 µM, respectively. In assay [1], the inhibition at 10 µM worked out at 14.1%.

Turning to `O=C(Nc1cncc(-c2cnc3[nH]nc(-c4cc5c(-c6cccc(F)c6)ccnc5[nH]4)c3c2)c1)C1CC1` [Compound 20, N-(5-(3-(4-(3-Fluorophenyl)-1H-pyrrolo[2,3-b]pyridin-2-yl)-1H-pyrazolo [3,4-b]pyridin-5-yl)pyridin-3-yl)cyclopropanecarboxamide], the EC50 in assay [1] was 2.13 µM; with SW480 colon cancer cells, greater than 10 µM; in assay [2] it was 2.63 µM. In addition, in the assay on SW480 colon cancer cells, the inhibition at 10 µM came to 51.4%.

Consider `O=C(Nc1cncc(-c2cnc3[nH]nc(-c4cc5c(-c6cccs6)ccnc5[nH]4)c3c2)c1)C1CC1` [Compound 356, N-(5-(3-(4-(Thiophen-2-yl)-1H-pyrrolo[2,3-b]pyridin-2-yl)-1H-pyrazolo[3,4-b]pyridin-5-yl)pyridin-3-yl)cyclopropanecarboxamide], for which the EC50 in assay [1] was 0.28 µM; in the assay with SW480 colon cancer cells, greater than 10 µM; in assay [2], greater than 10 µM. In addition, the inhibition at 10 µM worked out at 14.5% with SW480 colon cancer cells and 0% in assay [2].

In the case of `CN1CCN(c2ccnc3[nH]c(-c4n[nH]c5ncc(-c6cncc(NC(=O)C7CCCCC7)c6)cc45)cc23)CC1` [Compound 247, N-(5-(3-(4-(4-Methylpiperazin-1-yl)-1H-pyrrolo[2,3-b]pyridin-2-yl)-1H-pyrazolo[3,4-b]pyridin-5-yl)pyridin-3-yl)cyclohexanecarboxamide], the EC50 in assay [1] was 0.496 µM; with SW480 colon cancer cells, greater than 10 µM; in assay [2], 5.03 µM. The inhibition at 10 µM in the assay with SW480 colon cancer cells is 11.7%.

`CN(C)Cc1cncc(-c2cnc3[nH]nc(-c4cc5c(-c6cccc(F)c6)ccnc5[nH]4)c3c2)c1` [Compound 13, 1-(5-(3-(4-(3-Fluorophenyl)-1H-pyrrolo[2,3-b]pyridin-2-yl)-1H-pyrazolo [3,4-b]pyridin-5-yl)pyridin-3-yl)-N,N-dimethylmethanamine]: the EC50 (in assay [1]; in the assay with SW480 colon cancer cells; in assay [2]) was greater than 10 µM in each case. Besides, the inhibition at 10 µM turned out to be 27.5% in assay [1], 11.6% in the assay with SW480 colon cancer cells and 5.2% in assay [2].

Consider `CC(C)C(=O)Nc1cncc(-c2cnc3[nH]nc(-c4cc5c(-c6ccccc6F)ccnc5[nH]4)c3c2)c1` [Compound 65, N-(5-(3-(4-(2-Fluorophenyl)-1H-pyrrolo[2,3-b]pyridin-2-yl)-1H-pyrazolo [3,4-b]pyridin-5-yl)pyridin-3-yl)isobutyramide], for which the EC50 in assay [1] was greater than 10 µM; with SW480 colon cancer cells it was greater than 10 µM; in assay [2], 0.812 µM. For the same molecule, the inhibition at 10 µM was 25.6% in assay [1] and 32.1% with SW480 colon cancer cells.

For `c1cc(-c2cnc3[nH]nc(-c4cc5c(-c6ccncc6)ccnc5[nH]4)c3c2)ccn1` [Compound 130, 5-(Pyridin-4-yl)-3-(4-(pyridin-4-yl)-1H-pyrrolo[2,3-b]pyridin-2-yl)-1H-pyrazolo[3,4-b]pyridine], the EC50 (in assay [1]; in the assay with SW480 colon cancer cells; in assay [2]) was greater than 10 µM each time. Also, the inhibition at 10 µM in assay [1] turned out to be 45.9%; in the assay on SW480 colon cancer cells, 5.7%; in assay [2] it was 20.5%.

With `c1cncc(-c2ccnc3[nH]c(-c4n[nH]c5ncc(-c6cncc(CN7CCCCC7)c6)cc45)cc23)c1` [Compound 99, 5-(5-(Piperidin-1-ylmethyl)pyridin-3-yl)-3-(4-(pyridin-3-yl)-1H-pyrrolo[2,3-b]pyridin-2-yl)-1H-pyrazolo[3,4-b]pyridine], the EC50 (in assay [1]; in the assay on SW480 colon cancer cells; in assay [2]) was greater than 10 µM in each case. Moreover, the values for the inhibition at 10 µM (in assay [1]; in the assay with SW480 colon cancer cells; in assay [2]) were 37%, 9.6% and 73.8%, respectively.

For the molecule `O=C(Nc1cncc(-c2cnc3[nH]nc(-c4cc5cccnc5[nH]4)c3c2)c1)C1CCCC1` [Compound 274, N-(5-(3-(1H-Pyrrolo[2,3-b]pyridin-2-yl)-1H-pyrazolo[3,4-b]pyridin-5-yl)pyridin-3-yl)cyclopentanecarboxamide], the EC50 in assay [1] is 0.415 µM; in the assay with SW480 colon cancer cells it was greater than 10 µM; in assay [2], 0.76 µM. Moreover, the inhibition at 10 µM with SW480 colon cancer cells came to 54.2%.

For the molecule `CCCCC(=O)Nc1cncc(-c2cnc3[nH]nc(-c4cc5cccnc5[nH]4)c3c2)c1` [Compound 271, N-(5-(3-(1H-Pyrrolo[2,3-b]pyridin-2-yl)-1H-pyrazolo[3,4-b]pyridin-5-yl)pyridin-3-yl)pentanamide], the results for the EC50 (in assay [1]; with SW480 colon cancer cells; in assay [2]) were 0.041 µM, greater than 10 µM and 5.35 µM, respectively. In addition, in the assay on SW480 colon cancer cells, the inhibition at 10 µM is 11.4%.

On to `Fc1cccc(-c2ccnc3[nH]c(-c4n[nH]c5ncc(-c6cccnc6)cc45)cc23)c1` [Compound 4, 3-(4-(3-Fluorophenyl)-1H-pyrrolo[2,3-b]pyridin-2-yl)-5-(pyridin-3-yl)-1H-pyrazolo[3,4-b]pyridine], for which the EC50 was greater than 10 µM in assay [1], greater than 10 µM with SW480 colon cancer cells and 2.72 µM in assay [2]. The inhibition at 10 µM in assay [1] stood at 22.6%; in the assay with SW480 colon cancer cells, 17.5%.

Regarding `Nc1cncc(-c2cnc3[nH]nc(-c4cc5c(-c6ccncc6)ccnc5[nH]4)c3c2)c1` [Compound 115, 5-(3-(4-(Pyridin-4-yl)-1H-pyrrolo[2,3-b]pyridin-2-yl)-1H-pyrazolo[3,4-b]pyridin-5-yl)pyridin-3-amine], the EC50 in assay [1] is greater than 10 µM; with SW480 colon cancer cells, greater than 10 µM; in assay [2], 5.9 µM. Also, the inhibition at 10 µM in assay [1] amounted to 40.6%; with SW480 colon cancer cells it was 0%.

Take `c1ccc(CNCc2cncc(-c3cnc4[nH]nc(-c5cc6c(-c7ccncc7)ccnc6[nH]5)c4c3)c2)cc1` [Compound 136, N-Benzyl-1-(5-(3-(4-(pyridin-4-yl)-1H-pyrrolo[2,3-b]pyridin-2-yl)-1H-pyrazolo[3,4-b]pyridin-5-yl)pyridin-3-yl)methanamine]: the figures for the EC50 (in assay [1]; in the assay on SW480 colon cancer cells; in assay [2]) were greater than 10 µM, greater than 10 µM and 3.04 µM, respectively. Besides, the inhibition at 10 µM in assay [1] is 23.5%; with SW480 colon cancer cells, 14.9%.

Turning to `CC(C)(C)C(=O)Nc1cncc(-c2cnc3[nH]nc(-c4cc5c(N6CCCCC6)ccnc5[nH]4)c3c2)c1` [Compound 176, N-(5-(3-(4-(Piperidin-1-yl)-1H-pyrrolo[2,3-b]pyridin-2-yl)-1H-pyrazolo[3,4-b]pyridin-5-yl)pyridin-3-yl)pivalamide], the EC50 was 1.2 µM in assay [1], greater than 10 µM in the assay on SW480 colon cancer cells and greater than 10 µM in assay [2]. Also, the inhibition at 10 µM was found to be 2.9% in the assay on SW480 colon cancer cells and 22.4% in assay [2].

For `CC(C)C(=O)Nc1cncc(-c2cnc3[nH]nc(-c4cc5c(-c6cccnc6)ccnc5[nH]4)c3c2)c1` [Compound 93, N-(5-(3-(4-(Pyridin-3-yl)-1H-pyrrolo[2,3-b]pyridin-2-yl)-1H-pyrazolo[3,4-b]pyridin-5-yl)pyridin-3-yl)isobutyramide], the EC50 (in assay [1]; with SW480 colon cancer cells; in assay [2]) was greater than 10 µM each time. Besides, the inhibition at 10 µM amounted to 26.2% in assay [1], 10.1% with SW480 colon cancer cells and 42.1% in assay [2].

The record behind these values is patent US10285983B2, “3-(1H-pyrrolo[2,3-B]pyridin-2-yl)-1H-pyrazolo[3,4-B] pyridines and therapeutic uses thereof” (Samumed, LLC, priority 2015, dated 2019).
